Measurements published in PubChem BioAssay (NCI).
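Results reflect a 48-hour exposure of cells in 96-well plates to compound at five concentrations. TGI denotes the concentration required for complete inhibition of growth.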

Assays:
Assay in all cases: NCI tumour cell line growth inhibition, 48 h
[1] = test system: MCF7 breast
[2] = test system: SF-539 CNS
[3] = test system: A549 NSCLC
[4] = test system: HL-60(TB) leukemia
[5] = test system: SW-620 colon
[6] = test system: UO-31 renal
[7] = test system: TK-10 renal
[8] = test system: LOX IMVI melanoma
[9] = test system: SNB-75 CNS
[10] = test system: MOLT-4 leukemia
[11] = test system: NCI/ADR-RES ovarian
[12] = test system: A498 renal
[13] = test system: M14 melanoma
[14] = test system: SN12C renal
[15] = test system: SR leukemia
[16] = test system: OVCAR-4 ovarian
[17] = test system: HT29 colon
[18] = test system: NCI-H522 lung
[19] = test system: HCT-116 colon
[20] = test system: HCC-2998 colon
[21] = test system: HCT-15 colon
[22] = test system: MALME-3M melanoma
[23] = test system: OVCAR-3 ovarian
[24] = test system: IGROV1 ovarian
[25] = test system: SF-295 CNS
[26] = test system: OVCAR-8 ovarian
[27] = test system: MDA-MB-231 breast
[28] = test system: HOP-92 NSCLC
[29] = test system: ACHN renal
[30] = test system: COLO 205 colon
[31] = test system: SK-MEL-2 melanoma
[32] = test system: NCI-H460 lung
[33] = test system: SK-MEL-5 melanoma
[34] = test system: MDA-N
[35] = test system: T-47D breast
[36] = test system: SNB-19 CNS
[37] = test system: EKVX NSCLC
[38] = test system: CAKI-1 renal
[39] = test system: U251 CNS
[40] = test system: NCI-H23 lung
[41] = test system: HS 578T breast
[42] = test system: CCRF-CEM leukemia
[43] = test system: RPMI-8226 leukemia
[44] = test system: K-562 leukemia
[45] = test system: SK-OV-3 ovarian
[46] = test system: HOP-62 NSCLC
[47] = test system: SK-MEL-28 melanoma
[48] = test system: OVCAR-5 ovarian
[49] = test system: BT-549 breast
[50] = test system: 786-0 renal
[51] = test system: PC-3 prostate
[52] = test system: DU-145 prostate
[53] = test system: NCI-H226 lung
[54] = test system: UACC-62 melanoma
[55] = test system: MDA-MB-435
[56] = test system: UACC-257 melanoma
[57] = test system: SF-268 CNS
[58] = test system: RXF 393 renal
[59] = test system: KM12 colon

In the case of O=[N+]([O-])c1ccc(N=Nc2c(O)c(S(=O)(=O)O)cc3cc(S(=O)(=O)O)ccc23)cc1, the TGI [1] is reported as > 100 µM, the TGI [2] is reported as > 100 µM and the TGI [3] is reported as > 100 µM. For the same molecule, the TGI [4] was > 100 µM, the TGI [5] was > 100 µM and the TGI [6] was > 100 µM. The TGI [7] was > 100 µM, the TGI [8] was > 100 µM and the TGI [9] was > 100 µM. The TGI [10] was > 100 µM, the TGI [11] was > 100 µM and the TGI [12] was > 100 µM. The TGI [13] was > 100 µM, the TGI [14] was > 100 µM and the TGI [15] was > 100 µM. For the same molecule, the TGI [16] was > 100 µM, the TGI [17] was > 100 µM and the TGI [18] was > 100 µM. For the same molecule, the TGI [19] was > 100 µM, the TGI [20] was > 100 µM and the TGI [21] was > 100 µM. For the same molecule, the TGI [22] was > 100 µM, the TGI [23] was > 100 µM and the TGI [24] was > 100 µM. For the same molecule, the TGI [25] was > 100 µM, the TGI [26] was > 100 µM and the TGI [27] was > 100 µM. For the same molecule, the TGI [28] was > 100 µM, the TGI [29] was > 100 µM and the TGI [30] was > 100 µM. For the same molecule, the TGI [31] was > 100 µM, the TGI [32] was > 100 µM and the TGI [33] was > 100 µM. The TGI [34] was > 100 µM, the TGI [35] was > 100 µM and the TGI [36] was > 100 µM. The TGI [37] was > 100 µM, the TGI [38] was > 100 µM and the TGI [39] was > 100 µM. For the same molecule, the TGI [40] was > 100 µM, the TGI [41] was > 100 µM and the TGI [42] was > 100 µM. For the same molecule, the TGI [43] was > 100 µM, the TGI [44] was > 100 µM and the TGI [45] was > 100 µM. The TGI [46] was > 100 µM, the TGI [47] was > 100 µM and the TGI [48] was > 100 µM. The TGI [49] was > 100 µM, the TGI [50] was > 100 µM and the TGI [51] was > 100 µM. The TGI [52] was > 100 µM, the TGI [53] was > 100 µM and the TGI [54] was > 100 µM. For the same molecule, the TGI [55] was > 100 µM and the TGI [56] was > 100 µM.
For COc1ccc(-c2c(N)n(-c3cccc(C(=O)O)c3)c(=O)c3cc([N+](=O)[O-])ccc23)cc1, the TGI [1] was > 100 µM, the TGI [2] was > 100 µM and the TGI [3] was > 100 µM. The TGI [4] was > 100 µM, the TGI [5] was > 100 µM and the TGI [6] was > 100 µM. The TGI [7] was > 100 µM, the TGI [8] was > 100 µM and the TGI [9] was > 100 µM. For the same molecule, the TGI [10] was > 100 µM, the TGI [11] was > 100 µM and the TGI [12] was > 100 µM. The TGI [13] was > 100 µM, the TGI [15] was > 100 µM and the TGI [16] was > 100 µM. The TGI [17] was > 100 µM, the TGI [18] was > 100 µM and the TGI [19] was > 100 µM. For the same molecule, the TGI [20] was > 100 µM, the TGI [21] was > 100 µM and the TGI [23] was > 100 µM. For the same molecule, the TGI [24] was > 100 µM, the TGI [25] was > 100 µM and the TGI [26] was > 100 µM. The TGI [29] was > 100 µM, the TGI [31] was > 100 µM and the TGI [32] was > 100 µM. The TGI [57] was > 100 µM, the TGI [33] was > 100 µM and the TGI [34] was > 100 µM. For the same molecule, the TGI [35] was > 100 µM, the TGI [58] was > 100 µM and the TGI [36] was > 100 µM. The TGI [37] was > 100 µM, the TGI [38] was > 100 µM and the TGI [39] was > 100 µM. The TGI [40] was > 100 µM, the TGI [41] was > 100 µM and the TGI [42] was > 100 µM. The TGI [43] was > 100 µM, the TGI [44] was > 100 µM and the TGI [45] was > 100 µM. The TGI [46] was > 100 µM, the TGI [47] was > 100 µM and the TGI [48] was > 100 µM. The TGI [49] was > 100 µM, the TGI [50] was > 100 µM and the TGI [51] was > 100 µM. For the same molecule, the TGI [59] was > 100 µM, the TGI [52] was > 100 µM and the TGI [53] was > 100 µM. The TGI [54] was > 100 µM, the TGI [55] was > 100 µM and the TGI [56] was > 100 µM.
For O=c1c2cc(I)ccc2nc(Sc2ncccc2[N+](=O)[O-])n1Cc1ccccc1, the TGI [1] was > 100 µM, the TGI [2] was > 100 µM and the TGI [3] was > 100 µM. The TGI [4] was 2.02 µM, the TGI [5] was > 100 µM and the TGI [6] was > 100 µM. The TGI [7] was > 100 µM, the TGI [8] was > 100 µM and the TGI [9] was > 100 µM. The TGI [10] was > 100 µM, the TGI [11] was > 100 µM and the TGI [12] was > 100 µM. The TGI [13] was > 100 µM, the TGI [14] was > 100 µM and the TGI [15] was > 100 µM. The TGI [16] was > 100 µM, the TGI [17] was > 100 µM and the TGI [18] was 78 µM. For the same molecule, the TGI [19] was > 100 µM, the TGI [20] was > 100 µM and the TGI [21] was > 100 µM. For the same molecule, the TGI [23] was > 100 µM, the TGI [24] was > 100 µM and the TGI [25] was > 100 µM. For the same molecule, the TGI [26] was > 100 µM, the TGI [27] was > 100 µM and the TGI [28] was 77.6 µM. The TGI [29] was > 100 µM, the TGI [30] was > 100 µM and the TGI [31] was 30.8 µM. For the same molecule, the TGI [32] was > 100 µM, the TGI [57] was > 100 µM and the TGI [33] was 91.6 µM. For the same molecule, the TGI [34] was > 100 µM, the TGI [35] was > 100 µM and the TGI [58] was > 100 µM. The TGI [36] was > 100 µM, the TGI [37] was 71.2 µM and the TGI [38] was > 100 µM. For the same molecule, the TGI [39] was > 100 µM, the TGI [40] was > 100 µM and the TGI [41] was 92.3 µM. For the same molecule, the TGI [42] was > 100 µM, the TGI [43] was > 100 µM and the TGI [44] was > 100 µM. The TGI [45] was > 100 µM, the TGI [46] was > 100 µM and the TGI [47] was > 100 µM. For the same molecule, the TGI [48] was > 100 µM, the TGI [49] was 64 µM and the TGI [50] was > 100 µM. For the same molecule, the TGI [51] was > 100 µM, the TGI [59] was > 100 µM and the TGI [52] was > 100 µM. For the same molecule, the TGI [53] was > 100 µM, the TGI [54] was > 100 µM and the TGI [55] was > 100 µM. The TGI [56] was > 100 µM.
CSc1c(C#N)c(=O)[nH]c2n[nH]c(C)c12 was tested, and the TGI [1] was > 100 µM, the TGI [2] was > 100 µM and the TGI [3] was > 100 µM. The TGI [4] was > 100 µM, the TGI [5] was > 100 µM and the TGI [6] was > 100 µM. The TGI [7] was > 100 µM, the TGI [8] was > 100 µM and the TGI [9] was > 100 µM. The TGI [10] was > 100 µM, the TGI [11] was > 100 µM and the TGI [12] was > 100 µM. For the same molecule, the TGI [13] was > 100 µM, the TGI [14] was > 100 µM and the TGI [15] was > 100 µM. For the same molecule, the TGI [16] was > 100 µM, the TGI [17] was > 100 µM and the TGI [19] was > 100 µM. The TGI [20] was > 100 µM, the TGI [21] was > 100 µM and the TGI [22] was > 100 µM. For the same molecule, the TGI [23] was > 100 µM, the TGI [26] was > 100 µM and the TGI [27] was > 100 µM. For the same molecule, the TGI [30] was > 100 µM, the TGI [31] was > 100 µM and the TGI [32] was > 100 µM. The TGI [57] was > 100 µM, the TGI [33] was > 100 µM and the TGI [34] was > 100 µM. The TGI [35] was > 100 µM, the TGI [58] was > 100 µM and the TGI [36] was > 100 µM. The TGI [37] was > 100 µM, the TGI [38] was > 100 µM and the TGI [39] was > 100 µM. The TGI [40] was > 100 µM, the TGI [41] was > 100 µM and the TGI [42] was > 100 µM. The TGI [43] was > 100 µM, the TGI [44] was > 100 µM and the TGI [45] was > 100 µM. The TGI [47] was > 100 µM, the TGI [48] was > 100 µM and the TGI [49] was > 100 µM. For the same molecule, the TGI [50] was > 100 µM, the TGI [51] was > 100 µM and the TGI [59] was > 100 µM. The TGI [52] was > 100 µM, the TGI [53] was > 100 µM and the TGI [54] was > 100 µM. For the same molecule, the TGI [55] was > 100 µM and the TGI [56] was > 100 µM.
